The source of these data is ChEMBL document CHEMBL1156829 (Proc Natl Acad Sci U S A, 2008).

The test system of data set [1] is Plasmodium falciparum. In words: NOVARTIS: Inhibition of Plasmodium falciparum W2 (drug-resistant) proliferation in erythrocyte-based infection assay. The class given is functional, organism-based. Particulars: Plasmodium falciparum, W2; read-out: EC50.
The nature of data set [2]: NOVARTIS: Cytotoxicity against human hepatocellular carcinoma cell line (Huh7). The class given is toxicity, cell-based, Huh-7. The conditions noted are these: Huh7 cells (hepatocellular carcinoma cell line).
Data set [3] relates to Plasmodium falciparum. In words: NOVARTIS: Inhibition of Plasmodium falciparum 3D7 (drug-susceptible) proliferation in erythrocyte-based infection assay. It counts as functional, organism-based. Particulars: Plasmodium falciparum, 3D7.

Bounds are passed on as bounds.

In the case of `CC(=O)NCCc1ccc(O)cc1`, the figures for the half-maximal effective concentration (EC50) in the data set with Plasmodium falciparum [1] and in the data set with Plasmodium falciparum [3] were less than 13.7 nM and greater than 1670 nM, respectively. In addition, the CC50 in data set [2] was greater than 10000 nM.
For `CCSC(Cl)=C(NC(=O)c1ccccc1)[P+](c1ccccc1)(c1ccccc1)c1ccccc1.[O-][Cl+3]([O-])([O-])[O-]` the same measures were 45.5 nM, 123 nM and 32200 nM.
The matching figures for `CCC1CN2CCc3cc(OC)c(OC)cc3C2CC1CC1NCCc2cc(OC)c(OC)cc21` (centres undefined): 36 nM, 35.7 nM and 23700 nM.
The matching figures for `CCN(CC)CCCC(C)N=c1cc(C=Cc2ccccc2Cl)[nH]c2cc(Cl)ccc12` (centres undefined): 25.7 nM, 50.7 nM and 18800 nM.
With `COc1ccc(C=C2SC(=N)N(c3ccccc3OC)C2=O)cc1`, the 50% effective concentration (EC50) in the data set on Plasmodium falciparum [1] turned out to be 87.1 nM; in the data set with Plasmodium falciparum [3], 163 nM. This compound also yielded a CC50 in data set [2] of 62900 nM.
For `CCOc1ccc(C2c3[nH]c4ccccc4c3CCN2C(=O)c2cc3cc(Br)ccc3o2)cc1` (centres undefined), the EC50 in the data set with Plasmodium falciparum [1] was 135 nM; in the data set with Plasmodium falciparum [3] it was 316 nM. Further, the CC50 in data set [2] is greater than 100000 nM.
For `CCOC(=O)C1=C(C)NC2=C(C(=O)C(C(=O)OCC)C(c3ccc(OC)cc3)C2)C1c1ccc([N+](=O)[O-])cc1` (centres undefined) the same measures were 134 nM, 685 nM and greater than 100000 nM.
The matching figures for `C[n+]1oc(C=Cc2ccccc2)cc1C=Cc1ccccc1`: 28.8 nM, 68.8 nM and 21200 nM.
In the case of `CN(CCCNc1ccnc2cc(Cl)ccc12)C(=O)COCc1ccccc1`, the EC50 with Plasmodium falciparum [1] is less than 13.5 nM; in the data set on Plasmodium falciparum [3], 110 nM. The compound further had a CC50 in data set [2] greater than 10000 nM.
The matching figures for `O=C(NCCCCNc1ccnc2cc(Cl)ccc12)c1cccc(C(F)(F)F)c1`: less than 13.8 nM, 171 nM and greater than 10000 nM.
As to `O=C1C(N2CCCCC2)=C(N2CCCCC2)C(=O)c2ccccc21`, the figures for the EC50 with Plasmodium falciparum [1] and in the data set on Plasmodium falciparum [3] were 34.1 nM and 137 nM, respectively. The compound also showed a half-maximal cytotoxic concentration (CC50) in data set [2] of 24900 nM.
Consider `CCOc1cc(C2CC(=O)NC3=C2C(=O)CC(C)(C)C3)ccc1OC(C)C` (centres undefined), for which the EC50 came to 136 nM with Plasmodium falciparum [1] and 284 nM in the data set on Plasmodium falciparum [3]. The compound further showed a CC50 in data set [2] greater than 100000 nM.
The matching figures for `CCN1C(=O)N(CC)C(NNC(N)=S)C1NNC(N)=S` (centres undefined): 152 nM, 123 nM and greater than 100000 nM.
For `CSc1nc2nc(C)c(Cc3cccc(F)c3)c(C)n2n1` the same measures were 152 nM, 298 nM and greater than 100000 nM.
For the compound `Cc1c(C(=O)NCCN2CCCC2)cnn1-c1ncc2c(n1)-c1ccccc1SC2`, the EC50 in the data set with Plasmodium falciparum [1] was less than 14.3 nM; in the data set with Plasmodium falciparum [3], 525 nM. In data set [2], this compound showed a CC50 greater than 10000 nM.
The matching figures for `CCc1cccc(NC(=O)N2CCN(C(=O)c3nc(-c4ccccc4)nc(C)c3C(=O)OC(C)C)CC2C)c1` (centres undefined): less than 14.1 nM, 719 nM and greater than 10000 nM.
The matching figures for `C[n+]1c(/C=C\c2ccc(F)cc2)ccc2ccccc21`: 14.2 nM, 274 nM and greater than 10000 nM.
Take `Fc1ccc(C2(CCCSc3nnc4c(n3)[nH]c3ccccc34)OCCO2)cc1`: the EC50 with Plasmodium falciparum [1] amounted to 141 nM; in the data set with Plasmodium falciparum [3], 400 nM. Besides, the CC50 in data set [2] is greater than 100000 nM.
Turning to `CC(c1nc2ccc(Cl)cc2c(=O)n1C)N1CCN(S(=O)(=O)c2cccc3ccccc23)CC1` (centres undefined), the EC50 in the data set on Plasmodium falciparum [1] was found to be 140 nM; in the data set with Plasmodium falciparum [3] it was 147 nM. This compound gave a CC50 in data set [2] greater than 100000 nM.
For `O=C1N(Cc2cc3ccccc3s2)CC2CN(Cc3ccc(F)c(F)c3)CCN12` (centres undefined) the same measures were less than 13.9 nM, 239 nM and greater than 10000 nM.
The matching figures for `COc1ccccc1N1CCN(Cc2cc(C)c(C)cc2O)CC1`: 80.5 nM, 383 nM and 58000 nM.
For `C=C[C@H]1CN2CC[C@H]1C[C@H]2[C@H](OC(=O)c1cccc([N+](=O)[O-])c1)c1ccnc2ccccc12` the same measures were less than 14.5 nM, 396 nM and greater than 10000 nM.
Turning to `COc1ccc(-c2c[n+](CC(=O)c3ccc(Cl)cc3)c3n2CCC3)cc1`, the EC50 with Plasmodium falciparum [1] amounted to 150 nM; in the data set on Plasmodium falciparum [3] it was 641 nM. In data set [2], this compound gave a CC50 greater than 100000 nM.
For `CN(C)c1ccc(NC(=O)C2C3C=CC(O3)C2C(=O)O)cc1` (centres undefined) the same measures were 47.7 nM, 120 nM and 32800 nM.
For `O=S(=O)(c1ccc(Cl)cc1)N1CCN(C(=S)NCC2CCCO2)CC1` (centres undefined) the same measures were 149 nM, 653 nM and greater than 100000 nM.
The matching figures for `COCC(=O)Oc1ccccc1-c1nc2cc(C)ccn2c1NC(C)(C)CC(C)(C)C`: less than 9.15 nM, 799 nM and greater than 6200 nM.
`CCOC(=O)C1=C(N)N(c2cccc([N+](=O)[O-])c2)C2=C(C(=O)CC(C)(C)C2)C1c1ccc(Br)cc1` (centres undefined): the EC50 in the data set with Plasmodium falciparum [1] was found to be 150 nM; in the data set with Plasmodium falciparum [3], 1260 nM. In data set [2], the CC50 was greater than 100000 nM.
The matching figures for `O=C1CC(C(=O)N2CCC(c3nc(-c4cccnc4)ncc3-c3ccccc3)CC2)c2ccccc21` (centres undefined): 150 nM, 459 nM and greater than 100000 nM.
For `CC(CNC(=O)c1cn(C2CCCCC2)cc(C(=O)NC(C)(C)C)c1=O)c1ccccc1` (centres undefined) the same measures were less than 15 nM, 174 nM and greater than 10000 nM.
For `CCOC(=O)C1=C(CC)NC2=C(C(=O)CC(C)(C)C2)C1c1ccccc1F` (centres undefined) the same measures were 151 nM, 459 nM and greater than 100000 nM.
Turning to `c1cc(-c2cccc3cccnc23)nc(N2CCN(CCN3CCCC3)CC2)c1`, the concentration for a half-maximal effect (EC50) in the data set with Plasmodium falciparum [1] was found to be 103 nM; with Plasmodium falciparum [3] it was 58.4 nM. In data set [2], this compound registered a CC50 of 70100 nM.
For `COc1cc2nc(NCc3cccnc3)n3nc(-c4ccccc4)nc3c2cc1OC` the same measures were 148 nM, 182 nM and greater than 100000 nM.
For `COC(=O)C1=C(C)N/C(=C\c2cc(C)n(-c3cc(C)ccc3C)c2C)C1=O` the same measures were 15.1 nM, 12.4 nM and greater than 10000 nM.
For `CC(C)CN1C(=O)c2ccccc2C(C(=O)Nc2cc(F)ccc2F)C1c1cccs1` (centres undefined) the same measures were 150 nM, 260 nM and greater than 100000 nM.
With `COC(=O)c1c(-c2c(Cl)cccc2Cl)noc1NC(=O)NN1CCCCC1`, the results for the 50% effective concentration (EC50) with Plasmodium falciparum [1] and with Plasmodium falciparum [3] were 151 nM and 277 nM, respectively. The same compound yielded a CC50 in data set [2] greater than 100000 nM.
For `O=C(CN1CCN(C(=O)c2ccccc2)CC1)Nc1ccc(-c2nc3cc(NC(=O)CN4CCN(C(=O)c5ccccc5)CC4)ccc3o2)cc1` the same measures were 146 nM, 235 nM and greater than 100000 nM.
For `COc1ccc(-c2nc(SCCCCC(=O)N3CCN(C(c4ccccc4)c4ccccc4)CC3)[nH]c2-c2ccc(OC)cc2)cc1`, the EC50 in the data set on Plasmodium falciparum [1] was less than 13.4 nM; with Plasmodium falciparum [3], greater than 1180 nM. In data set [2], this compound gave a CC50 greater than 10000 nM.
Turning to `O=C(C(Cc1ccc(O)cc1)c1ccccc1)N1CCC(n2c(Cc3ccc(F)cc3)nc3cccnc32)CC1` (centres undefined), the EC50 was determined as 138 nM in the data set on Plasmodium falciparum [1] and 351 nM in the data set with Plasmodium falciparum [3]. For the same compound, the CC50 in data set [2] was greater than 100000 nM.
Take `Cc1cccc(N(C)c2nc3ccccc3c3nnc(C)n23)c1`: the EC50 was 134 nM in the data set on Plasmodium falciparum [1] and 119 nM in the data set on Plasmodium falciparum [3]. For the same compound, the CC50 in data set [2] was greater than 100000 nM.
The matching figures for `COCCNC(=O)[C@@H]1C[C@@H](Sc2nc3ccccc3[nH]2)CN1Cc1ccc2ccccc2c1`: 135 nM, 638 nM and greater than 100000 nM.
The matching figures for `C=CC1CN2CCC1CC2[C@@H](OC(=O)c1ccc(C(C)(C)C)cc1)c1ccnc2ccc(OC)cc12` (some centres undefined): 103 nM, 26 nM and 72400 nM.
As for `COc1cc2c(-c3cc(Br)ccc3O)nc3c(c(Cc4ccccc4)nn3-c3ccccc3)c2cc1OC`, the figures for the EC50 with Plasmodium falciparum [1] and in the data set with Plasmodium falciparum [3] were 145 nM and 146 nM, respectively. Further, the CC50 in data set [2] is greater than 100000 nM.
Take `COc1ccc(C=Cc2ccc3ccccc3[n+]2C)cc1OC`: the EC50 amounted to 138 nM with Plasmodium falciparum [1] and 441 nM in the data set with Plasmodium falciparum [3]. This compound registered a CC50 in data set [2] greater than 100000 nM.
On to `Oc1ccccc1Nc1nc(-c2ccccc2O)nc2ccccc12`, for which the EC50 turned out to be 136 nM in the data set with Plasmodium falciparum [1] and 577 nM in the data set on Plasmodium falciparum [3]. The compound further registered a 50% cytotoxic concentration (CC50) in data set [2] greater than 100000 nM.
For `O=C(Nc1ccc(C2=NCCN2)cc1)c1ccc(NC(=O)c2ccc(C3=NCCN3)cc2)cc1` the same measures were 13.5 nM, 81.9 nM and greater than 10000 nM.
Regarding `Cc1ccc(-n2c(-c3ccccc3)cc(C=NNC(=O)c3cccc(O)c3)c2-c2ccccc2)cc1`, the 50% effective concentration (EC50) in the data set with Plasmodium falciparum [1] was determined as 139 nM; in the data set on Plasmodium falciparum [3], 150 nM. For the same compound, the CC50 in data set [2] was greater than 100000 nM.
Regarding `Cc1cc(Cl)c(S(=O)(=O)N2CCCC2)cc1OCC(=O)NC1CCCCC1`, the figures for the EC50 in the data set on Plasmodium falciparum [1] and with Plasmodium falciparum [3] were 141 nM and 95.6 nM, respectively. Moreover, the CC50 in data set [2] was greater than 100000 nM.
For the compound `CSc1cccc(NC(=O)C2C3C=CC4(O3)C2C(=O)N(C2CC2)C4C(=O)NC2CCCCC2)c1` (centres undefined), the EC50 in the data set on Plasmodium falciparum [1] was less than 14.5 nM; with Plasmodium falciparum [3] it was 1750 nM. Also, the CC50 in data set [2] was greater than 10000 nM.
For `CCN(CC)CCN1C(=O)c2ccccc2NC1c1ccc(Br)cc1` (centres undefined) the same measures were 67.1 nM, 218 nM and 47800 nM.
For `CCOC(=O)c1cnc2c3c(ccc2c1O)CCCC3` the same measures were 137 nM, 133 nM and greater than 100000 nM.
For `OC(CNCc1ccccc1)Cn1c2ccc(Br)cc2c2cc(Br)ccc21` (centres undefined) the same measures were 13.5 nM, 312 nM and 9300 nM.
On to `CCc1nc2nc(C)cc(Nc3ccc(C)c(F)c3)n2n1`, for which the EC50 came to 140 nM with Plasmodium falciparum [1] and 248 nM with Plasmodium falciparum [3]. Further, the CC50 in data set [2] is greater than 100000 nM.
Turning to `O=C(CCc1ccccc1)NCCCCNc1ccnc2cc(Cl)ccc12`, the EC50 with Plasmodium falciparum [1] is less than 13.8 nM; in the data set on Plasmodium falciparum [3] it was 142 nM. In data set [2], the CC50 was greater than 10000 nM.

One may read the EC50 as the concentration that produces a half-maximal response. In general, CC50 refers to the concentration that lowers cell viability or growth by half.
